For data set [1], the system named is normal beagle dogs. As to conditions: dog, in vivo, iv.
Data set [2] concerns model of sustained atrial fibrillation. Description: Test Example 1: screening for atrial fibrillation inhibitor, intravenous injection, Holter electrocardiogram. To be noted: for Frequency of Atrial Fibrillation Termination: X/Y individuals terminated.
Data set [3] shares this test system. The data set is described as follows: Test Example 2: study of dose and combined use of oseltamivir, with 24 hour follow-up for recurrence. The format is in vivo, beagle dog. As to conditions: for Frequency of Atrial Fibrillation Recurrence: 24 hours follow-up after termination. From the text: Oseltamivir (oseltamivir phosphate, trade name: TAMIFLU (registered trademark), product of CHUGAI PHARMACEUTICAL CO., LTD.; phosphate of the compound represented by Structural Formula (I))) and/or pilsicainide (pilsicainide hydrochloride, trade name: […] (registered trademark), product of DAIICHI SANKYO COMPANY, LIMITED), which had been diluted with saline to doses as described in Table 2-1, was intravenously injected to the model of sustained atrial fibrillation produced in Production Example 1 in doses described in Table 2-1 for 10 min.
During from before the administration to after the administration, the electrocardiogram was monitored in the same manner as in Test Example 1, and the frequency of atrial fibrillation termination and the defibrillation rate were determined in the same manner as in Test Example 1. For individuals in which atrial fibrillation was terminated, an electrocardiographic follow-up was performed for 24 hours after atrial fibrillation was terminated to thereby determine whether atrial fibrillation recurred.

The test system of data set [4] is normal beagle dogs. The data set is described as follows: Test Example 3: study of effect on QT prolongation (ECG, MAP90, ERP).
Setting [5] is: 3 mg/kg intravenous over 10 min.
[6] abbreviates: high dose 30 mg/kg intravenous over 10 min.
Where [7] appears, read: low dose 3 mg/kg intravenous over 10 min.
Where [8] appears, read: 30 mg/kg intravenous over 10 min.

Molecules are shown by their SMILES. Where two headings read alike, the source gives them in different places.

This is an account of results in patent US20140051756A1, “METHOD FOR PREVENTING OR TREATING ARRHYTHMIA, METHOD FOR PREVENTING OR TREATING ATRIAL FIBRILLATION, MODEL OF SUSTAINED ATRIAL FIBRILLATION, METHOD FOR PRODUCING THE MODEL, AND METHOD FOR SCREENING FOR ATRIAL FIBRILLATION INHIBITOR” (Toho University, priority 2011, published 2014).

On to `CC(C)N(CCC(C(N)=O)(c1ccccc1)c1ccccn1)C(C)C` (centres unmarked) [Disopyramide, disopyramide], for which, in data set [1], the “MAP90 (CL300) versus MAP90 (CL400), MAP prolongation pattern” value (“MAP90 (CL300) versus MAP90 (CL400)” below) was “dangerous MAP prolongation pattern”; the “prolongation of QT and QTc, QT prolongation pattern” value (from here on “prolongation of QT and QTc”) was “longer prolongations of QT and QTc than that of the oseltamivir-administered group, and a dangerous QT prolongation pattern”. For the same compound, in data set [2] (setting [5]), the “Frequency of Atrial Fibrillation Termination” value is 1/6. The “death of the model animal after administration” value in data set [2] (3 mg/kg intravenous, 1 individual, FIG. 6A) is listed as “confirmed to be dead”. Moreover, the “termination of atrial fibrillation on electrocardiogram” value in data set [2] (3 mg/kg intravenous, 1 individual, FIGS. 6A to 6C) is on record as “could not terminate atrial fibrillation”.

For `CCOC(=O)C1=C[C@@H](OC(CC)CC)[C@H](NC(C)=O)[C@@H](N)C1` [Oseltamivir, oseltamivir], in data set [3] (setting [6]), the “Defibrillation Rate” value was determined as 100%, the “Frequency of Atrial Fibrillation Termination” value is on record as 5/5 and the “Frequency of Atrial Fibrillation Recurrence” value is recorded as 2/5. In addition, in data set [3] (setting [7]), the “Defibrillation Rate” value is given as 25%, the “Frequency of Atrial Fibrillation Termination” value is 1/4 and the “Frequency of Atrial Fibrillation Recurrence” value is listed as 0/1. In addition, in data set [2] (setting [8]), the “Defibrillation Rate” value was 91.7%, the “adverse effect on the ventricle” value was “does not adversely affect the ventricle” and the “Frequency of Atrial Fibrillation Termination” value was 11/12. Further, the “Defibrillation Rate” value in data set [2] (30 mg/kg intravenous over 10 min, listed as oseltamivir) is “very high”. The “prolongation of QT and QTc” value in data set [4] (anesthetized normal dogs, intravenous doses increased stepwise every 30 min (Table 3), FIGS. 7 to 10) is “short prolongations of QT and QTc and a safe QT prolongation pattern”. Besides, the “prolongation of P wave width on the electrocardiogram (index of inhibitory effect on Na channels in the atrial muscle)” value in data set [4] (sinus rhythm, 0.3, 3, 30 mg/kg intravenous stepwise, FIG. 7) is listed as “longer prolongation of P wave”. Further, the “MAP90 (CL300) versus MAP90 (CL400)” value in data set [4] (ventricular pacing at cycle length 300 msec (200 bpm) and 400 msec (150 bpm), stepwise intravenous doses (Table 3)) is reported as “safe MAP prolongation pattern”.

Take `Cc1cccc(C)c1NC(=O)CC12CCCN1CCC2` [Pilsicainide, pilsicainide]: in data set [1], the “MAP90 (CL300) versus MAP90 (CL400)” value is reported as “dangerous MAP prolongation pattern”; the “prolongation of QT and QTc” value is “longer prolongations of QT and QTc than that of the oseltamivir-administered group, and a dangerous QT prolongation pattern”. In addition, in data set [2] (setting [5]), the “Defibrillation Rate” value came to 33.3% and the “Frequency of Atrial Fibrillation Termination” value was 2/6.

Regarding `c1ccc(C2(c3ccccc3)CC2C2=NCCN2)cc1` (centres unmarked) [Cibenzoline, cibenzoline], in data set [2] (setting [5]), the “Defibrillation Rate” value is given as 33.3% and the “Frequency of Atrial Fibrillation Termination” value is 2/6.

On to `CCN(CC)CCCN(c1ccccc1)C1Cc2ccccc2C1` [Aprindine, aprindine], for which, in data set [2] (setting [5]), the “Defibrillation Rate” value is given as 0% and the “Frequency of Atrial Fibrillation Termination” value is 0/6.
